Results taken from patent US11040031B2, “Pyrazole derivatives as MALT1 inhibitors” (Janssen Pharmaceutica NV, priority 2018, dated 2021).
Like-named read-outs stand apart in the source and are kept apart here.

What was measured:
[1] = system: Secretion of IL6 by OCI-LY3 ABC-DLBCL cells; test: Human IL6 Mesoscale assay (OCI-LY3); format: cell-based; conditions: read-out: Human IL6 Mesoscale assay (OCI-LY3)
Procedure: (§1) NFKB signaling regulates the secretion of multiple cytokines, including IL6 and IL10. Secretion of the cytokines IL6 and IL10 by TMD8 or OCI-LY3 ABC-DLBCL cells was measured using a mesoscale assay.
(§2) Cell passage number should not exceed 30. Cells should be kept between 0.5-2.5 million cells per mL during culturing and cells should be supplemented every 2-3 days with fresh 50 µM beta-mercaptoenthanol. No beta-mercaptoethanol was used during the mesoscale assay.
(§3) DMSO control wells were used to determine the maximum signal (High Control (HC)). […] Compounds and cells were incubated for 24 h at 37° C. and 5% CO2 (assay volume is 150 μL). After 24 h of incubation 50 μL of the supernatant was transferred to a MSD plate (V-Plex Proinflammation Panel 1 (human) kit, Mesoscale (MSD)) and incubated for 2 h with vigorous shaking (600 rpm) at room temperature. Following incubation, plates were washed 3× with PBS+0.05% Tween-20 and 25 μL detection antibody solution (IL6 & IL10 antibodies in diluent 3 (MSD)) was added per well followed by 2 h of incubation with vigorous shaking (600 rpm) at room temperature. After 3× washes with PBS+0.05% Tween-20, plates were incubated with 150 μL 2× Read Buffer T and read on SECTOR imager.

[2] = system: Secretion of IL10 by OCI-LY3 ABC-DLBCL cells; test: Human IL10 Mesoscale assay (OCI-LY3); format: cell-based; conditions: read-out: Human IL10 Mesoscale assay (OCI-LY3)
Procedure: as §1, §2, §3

[3] = biological target: T1, full-length MALT1 protein (Strep-MALT1(1-824)-His) (Homo sapiens, UniProt Q9UDY8); test: biochemical;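 further: fluorogenic LRSR-AMC substrate cleavage by MALT1, 50 min compound preincubation then 4 h reaction at RT, 11-point dilution from 30 µM, scaled between enzyme-free and untreated enzyme controls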
T1 sequence (Q9UDY8 1-824): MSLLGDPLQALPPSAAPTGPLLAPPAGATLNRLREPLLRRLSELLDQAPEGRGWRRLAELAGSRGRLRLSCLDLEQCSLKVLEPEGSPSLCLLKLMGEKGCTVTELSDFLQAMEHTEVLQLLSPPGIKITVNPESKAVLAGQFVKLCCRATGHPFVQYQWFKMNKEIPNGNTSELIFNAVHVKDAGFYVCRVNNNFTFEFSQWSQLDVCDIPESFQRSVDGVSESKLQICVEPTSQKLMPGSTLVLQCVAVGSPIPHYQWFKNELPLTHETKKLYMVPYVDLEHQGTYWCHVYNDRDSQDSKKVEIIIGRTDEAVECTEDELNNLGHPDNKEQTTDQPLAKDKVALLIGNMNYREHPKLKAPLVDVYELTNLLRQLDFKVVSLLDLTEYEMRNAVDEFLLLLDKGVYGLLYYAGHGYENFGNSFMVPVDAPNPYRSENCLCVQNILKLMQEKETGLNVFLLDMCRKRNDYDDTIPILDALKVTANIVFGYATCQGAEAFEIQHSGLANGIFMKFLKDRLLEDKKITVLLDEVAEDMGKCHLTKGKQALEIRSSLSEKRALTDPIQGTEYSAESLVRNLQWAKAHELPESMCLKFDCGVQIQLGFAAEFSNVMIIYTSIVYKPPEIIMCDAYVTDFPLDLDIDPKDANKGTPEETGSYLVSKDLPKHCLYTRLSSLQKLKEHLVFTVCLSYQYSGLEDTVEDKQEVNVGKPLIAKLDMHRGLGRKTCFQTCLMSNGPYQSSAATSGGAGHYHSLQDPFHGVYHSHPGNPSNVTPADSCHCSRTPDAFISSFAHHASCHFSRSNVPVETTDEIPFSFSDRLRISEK
Procedure: MALT1 protease activity was assessed in an in vitro assay using a tetrapeptide as substrate and full-length MALT1 protein (Strep-MALT1(1-824)-His) purified from baculovirus-infected insect cells. The tetrapeptide LRSR is coupled to AMC (7-amino-4-methylcoumarin) and provides a quenched, fluorescent substrate for the MALT1 protease (SM Biochemicals). Cleavage of AMC from the Arginine residue results in an increase in coumarin fluorescence measured at 460 nm (excitation 355 nm). […] Test compounds were spotted at 50 nL in 100% DMSO per well of a black 384-Proxiplate (Perkin Elmer). Test compound concentrations ranged from 30 μM to 0.5 nM using 11 dilution steps (1:3). Background signal was measured from control wells containing assay buffer without enzyme which functions as low control (LC). High control (HC) values were generated using the reaction with enzyme but no compound treatment. Compounds were pre-incubated with MALT1 enzyme for 50 minutes at RT. Substrate was added subsequently and fluorescence was measured in Labsystems fluoroskan at excitation 355 nm and emission 460 nm to determine time 0. The reaction was subsequently incubated for 4 h at RT and fluorescence was measured. […] The enzyme reaction was linear during the 4 h incubation period.
IC50 values were calculated using the following formula (Z prime should be >0.5):
From this an IC50 value (inhibitory concentration causing 50% inhibition) can be obtained. An estimate of the slope of the plot in terms of the Hill coefficient was also obtained.
With y=estimated response • UB=upper bound • LB=lower bound • h=hill

[4] = OCI-LY3 cells, 24 h incubation, supernatant, MSD V-Plex

| SMILES | IC50 ([1]; OCI-Ly3, 24 h) [nM] | IC50 ([2]; OCI-Ly3, 24 h) [nM] | IC50 [3] [nM] | IC50 [1, 4] [nM] | IC50 [2, 4] [nM] |
| --- | --- | --- | --- | --- | --- |
| Cc1cnccc1-n1ncc(C(=O)Nc2cnc(-n3nccn3)c(Cl)c2)c1C(F)(F)F [Cpd 158, N-(5-chloro-6-(2H-1,2,3-triazol-2-yl)pyridin-3-yl)-1-(3-methylpyridin-4-yl)-5-(trifluoromethyl)-1H-pyrazole-4-carboxamide] | 275 | 302 | 209 |  |  |
| N#Cc1cc(NC(=O)c2cnn(-c3nc(Cl)ccc3Cl)c2C(F)(F)F)cnc1-n1nccn1 [Cpd 162, N-(5-cyano-6-(2H-1,2,3-triazol-2-yl)pyridin-3-yl)-1-(3,6-dichloropyridin-2-yl)-5-(trifluoromethyl)-1H-pyrazole-4-carboxamide] |  |  | 302 | 251 | 182 |
| Cc1nc(-n2nccn2)c(C#N)cc1NC(=O)c1cnn(-c2ccc(C#N)c(N)n2)c1C(F)(F)F [Cpd 177, 1-(6-amino-5-cyanopyridin-2-yl)-N-(5-cyano-2-methyl-6-(2H-1,2,3-triazol-2-yl)pyridin-3-yl)-5-(trifluoromethyl)-1H-pyrazole-4-carboxamide] |  |  | 195 | 7410 | 2750 |
| Cc1nc(-n2nccn2)c(Cl)cc1NC(=O)c1cnn(-c2ccc(F)c(N)n2)c1C(F)(F)F [Cpd 179, 1-(6-amino-5-fluoropyridin-2-yl)-N-(5-chloro-2-methyl-6-(2H-1,2,3-triazol-2-yl)pyridin-3-yl)-5-(trifluoromethyl)-1H-pyrazole-4-carboxamide] |  |  | 204 | 676 | 324 |
| Nc1cccc(-n2ncc(C(=O)Nc3cnc(-n4nccn4)c(Cl)c3)c2C(F)(F)F)n1 [Cpd 180, 1-(6-aminopyridin-2-yl)-N-(5-chloro-6-(2H-1,2,3-triazol-2-yl)pyridin-3-yl)-5-(trifluoromethyl)-1H-pyrazole-4-carboxamide] |  |  | 219 | 257 | 170 |
| Cc1nc(-n2nccn2)c(Br)cc1NC(=O)c1cnn(-c2ccc(F)c(N)n2)c1C(F)(F)F [Cpd 181, 1-(6-amino-5-fluoropyridin-2-yl)-N-(5-bromo-2-methyl-6-(2H-1,2,3-triazol-2-yl)pyridin-3-yl)-5-(trifluoromethyl)-1H-pyrazole-4-carboxamide] |  |  | 234 | 363 | 240 |
| Cc1nc(-n2nccn2)c(C#N)cc1NC(=O)c1cnn(-c2ccc(F)c(N)n2)c1C(F)(F)F [Cpd 182, 1-(6-amino-5-fluoropyridin-2-yl)-N-(5-cyano-2-methyl-6-(2H-1,2,3-triazol-2-yl)pyridin-3-yl)-5-(trifluoromethyl)-1H-pyrazole-4-carboxamide] |  |  | 234 | 490 | 389 |
| Nc1ccc(Cl)c(-n2ncc(C(=O)Nc3cnc(-n4nccn4)c(Cl)c3)c2C(F)(F)F)n1 [Cpd 183, 1-(6-amino-3-chloropyridin-2-yl)-N-(5-chloro-6-(2H-1,2,3-triazol-2-yl)pyridin-3-yl)-5-(trifluoromethyl)-1H-pyrazole-4-carboxamide] |  |  | 282 | 269 | 195 |
| Cc1ccc(N)nc1-n1ncc(C(=O)Nc2cnc(-n3nccn3)c(Cl)c2)c1C(F)(F)F [Cpd 185, 1-(6-amino-3-methylpyridin-2-yl)-N-(5-chloro-6-(2H-1,2,3-triazol-2-yl)pyridin-3-yl)-5-(trifluoromethyl)-1H-pyrazole-4-carboxamide] |  |  | 331 | 490 | 355 |
| Cc1cc(-n2nccn2)c(Cl)cc1NC(=O)c1cnn(-c2ccc(F)c(N)n2)c1C(F)(F)F [Cpd 193, 1-(6-amino-5-fluoropyridin-2-yl)-N-(5-chloro-2-methyl-4-(2H-1,2,3-triazol-2-yl)phenyl)-5-(trifluoromethyl)-1H-pyrazole-4-carboxamide] |  |  | 1170 | 871 | 741 |

Now those with a lower IC50 [3], led by results:

| IC50 ([1]; OCI-Ly3, 24 h) [nM] | IC50 ([2]; OCI-Ly3, 24 h) [nM] | IC50 [3] [nM] | IC50 [1, 4] [nM] | IC50 [2, 4] [nM] | SMILES |
| --- | --- | --- | --- | --- | --- |
|  |  | 50 | 66 | 78 | Cc1cc(Cl)ccc1-n1ncc(C(=O)Nc2cnc(-n3nccn3)c(C#N)c2)c1C(F)(F)F [Cpd 166, 1-(4-chloro-2-methylphenyl)-N-(5-cyano-6-(2H-1,2,3-triazol-2-yl)pyridin-3-yl)-5-(trifluoromethyl)-1H-pyrazole-4-carboxamide] |
|  |  | 69 | 54 | 41 | Cc1c(F)cccc1-n1ncc(C(=O)Nc2cnc(-n3nccn3)c(C#N)c2)c1C(F)(F)F [Cpd 167, N-(5-cyano-6-(2H-1,2,3-triazol-2-yl)pyridin-3-yl)-1-(3-fluoro-2-methylphenyl)-5-(trifluoromethyl)-1H-pyrazole-4-carboxamide] |
|  |  | 74 | 78 | 46 | Cc1c(-n2ncc(C(=O)Nc3cnc(-n4nccn4)c(C#N)c3)c2C(F)(F)F)ccc(F)c1F [Cpd 168, N-(5-cyano-6-(2H-1,2,3-triazol-2-yl)pyridin-3-yl)-1-(3,4-difluoro-2-methylphenyl)-5-(trifluoromethyl)-1H-pyrazole-4-carboxamide] |
|  |  | 91 | 105 | 76 | N#Cc1ccc(-n2ncc(C(=O)Nc3cnc(-n4nccn4)c(C#N)c3)c2C(F)(F)F)cc1 [Cpd 169, N-(5-cyano-6-(2H-1,2,3-triazol-2-yl)pyridin-3-yl)-1-(4-cyanophenyl)-5-(trifluoromethyl)-1H-pyrazole-4-carboxamide] |
|  |  | 102 | 417 | 380 | Cc1cc(F)ccc1-n1ncc(C(=O)Nc2cc(C#N)c(-n3nccn3)nc2C)c1C(F)(F)F [Cpd 170, N-(5-cyano-2-methyl-6-(2H-1,2,3-triazol-2-yl)pyridin-3-yl)-1-(4-fluoro-2-methylphenyl)-5-(trifluoromethyl)-1H-pyrazole-4-carboxamide] |
|  |  | 145 | 98 | 76 | Cc1c(F)cccc1-n1ncc(C(=O)Nc2cnc(-n3nccn3)c(Cl)c2)c1C(F)(F)F [Cpd 171, N-(5-chloro-6-(2H-1,2,3-triazol-2-yl)pyridin-3-yl)-1-(3-fluoro-2-methylphenyl)-5-(trifluoromethyl)-1H-pyrazole-4-carboxamide] |
|  |  | 151 | 200 | 178 | Cc1cc(F)ccc1-n1ncc(C(=O)Nc2cc(Cl)c(-n3nccn3)nc2C)c1C(F)(F)F [Cpd 172, N-(5-chloro-2-methyl-6-(2H-1,2,3-triazol-2-yl)pyridin-3-yl)-1-(4-fluoro-2-methylphenyl)-5-(trifluoromethyl)-1H-pyrazole-4-carboxamide] |
|  |  | 151 | 129 | 95 | N#Cc1cc(NC(=O)c2cnn(-c3c(F)cc(F)cc3F)c2C(F)(F)F)cnc1-n1nccn1 [Cpd 173, N-(5-cyano-6-(2H-1,2,3-triazol-2-yl)pyridin-3-yl)-5-(trifluoromethyl)-1-(2,4,6-trifluorophenyl)-1H-pyrazole-4-carboxamide] |
|  |  | 141 | 331 | 229 | N#Cc1cc(NC(=O)c2cnn(-c3nc(N)ccc3Cl)c2C(F)(F)F)cnc1-n1nccn1 [Cpd 175, 1-(6-amino-3-chloropyridin-2-yl)-N-(5-cyano-6-(2H-1,2,3-triazol-2-yl)pyridin-3-yl)-5-(trifluoromethyl)-1H-pyrazole-4-carboxamide] |
|  |  | 170 | 813 | 813 | Cc1cc(N)nc(-n2ncc(C(=O)Nc3cnc(-n4nccn4)c(C#N)c3)c2C(F)(F)F)c1 [Cpd 176, 1-(6-amino-4-methylpyridin-2-yl)-N-(5-cyano-6-(2H-1,2,3-triazol-2-yl)pyridin-3-yl)-5-(trifluoromethyl)-1H-pyrazole-4-carboxamide] |
